Source: PubChem BioAssay (NCI)
Where “and” joins values, the source holds several entries; their conditions need not be identical. Equal values may be shown once.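 Five compound concentrations were applied to cells in 96-well plates for 48 hours; endpoints were derived by simple linear interpolation of the resulting dose-response curve. GI50 marks 50% less growth. TGI: concentration producing complete growth inhibition.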

Tests used:
Experiment in all cases: inhibition of tumour cell growth, NCI panel, 48 h
[1] = tested on: RXF 393 renal
[2] = tested on: HOP-92 NSCLC
[3] = tested on: NCI-H23 lung
[4] = tested on: U251 CNS
[5] = tested on: SF-539 CNS
[6] = tested on: UO-31 renal
[7] = tested on: 786-0 renal
[8] = tested on: UACC-62 melanoma
[9] = tested on: SNB-19 CNS
[10] = tested on: A498 renal

| Structure (SMILES) | GI50 [1] [µM] | TGI [1] [µM] | GI50 [2] | TGI [2] | GI50 [3] [µM] | TGI [3] [µM] | GI50 [4] [µM] | TGI [4] [µM] | GI50 [5] | TGI [5] | GI50 [6] [µM] | TGI [6] [µM] | GI50 [7] [µM] | TGI [7] [µM] | GI50 [8] [µM] | TGI [8] [µM] | GI50 [9] | TGI [9] [µM] | GI50 [10] [µM] | TGI [10] |
| --- | --- | --- | --- | --- | --- | --- | --- | --- | --- | --- | --- | --- | --- | --- | --- | --- | --- | --- | --- | --- |
| COc1ccc(-c2cc(-c3nnc(SCC(=O)Nc4ccc(C(C)=O)cc4)o3)c3ccccc3n2)cc1 | 18.1 | 57.5 | 9.1 µM | 37.5 µM | 25.4 | > 100 | 10.2 | 55.9 | 33.9 µM | > 100 µM | > 100 | > 100 | 1.94 | 4.95 | 27.1 | > 100 | 12.6 µM | > 100 | 24.8 | 72.7 µM |
| COc1cc2ncn(-c3cc(OCc4ccccc4S(C)(=O)=O)c(C#N)s3)c2cc1OC | > 14.9 | > 25 | > 14.2 µM | > 25 µM | > 25 | > 25 | > 22.3 | > 25 | > 25 µM | > 25 µM | > 25 | > 25 | > 25 | > 25 | > 25 | > 25 | 15.1 µM | > 25 | > 25 | > 25 µM |
| C[Si]12OCCCN(CCO1)CCO2 |  | > 100 |  | > 100 µM |  | > 100 |  | > 100 |  | > 100 µM |  | > 100 |  | > 100 |  | > 100 |  | > 100 |  | > 100 µM |
| O=C1OCC2=C1C(c1cccc(C(F)(F)F)c1)c1cc3c(cc1N2CCO)CCC3 (centres undefined) | 0.145 | 8.38 | 1.74 µM | 10.3 µM | 0.321 | 14.5 | 0.199 | 7.92 | 0.132 µM | 0.46 µM | 0.323 | 9.01 | 0.289 | 8.13 | 0.174 | 9.15 | 0.215 µM | 8.8 | 0.0804 | 0.397 µM |
| COc1ccc(-c2nc3sc4c(c3c(=O)[nH]2)CCCC4)c2ccccc12 | 0.253 | 0.799 | 0.0957 µM and 0.599 µM | 2.37 µM and 7.9 µM | 0.57 |  | 0.369 |  | 0.211 µM and 0.0213 µM | 0.544 µM and 0.0746 µM | 0.59 |  |  | 3.8 |  | 16.3 | 0.411 µM and 0.0467 µM | > 100 |  | 0.765 µM and 0.0871 µM |
| COc1ccc2[nH]cc(-c3nc(-c4c[nH]c5ccncc45)cs3)c2c1 | 1.74 | 3.33 | 1.79 µM | 3.75 µM | 1.76 | 3.85 | 1.91 | 3.67 | 1.64 µM | 3.09 µM | 1.75 | 3.46 | 1.84 | 3.41 | 1.78 | 3.35 | 1.97 µM | 3.8 | 4.91 | 16.1 µM |
| COc1ccc(C2=C(c3cc(OC)c(OC)c(OC)c3)C(=O)OC2)cc1OC | 0.0146 | > 100 | 6.65 µM | > 100 µM | 0.0251 | 13.4 | 0.187 | > 100 | 0.301 µM | 4.1 µM | 0.284 | > 50.9 | 0.0522 | > 62.3 | 0.336 | > 79.5 | 0.891 µM | > 100 | 0.134 | 21.3 µM |
